Measured values taken from patent US6355799B1, “Substituted benzene compounds, process for their preparation, and herbicidal and defoliant compositions containing them” (ISK Americas Incorporated, priority 1997, dated 2002).

Tests used:
Assay type in all cases: in vivo
[1] = system: field corn (Zea mays L., var. Dekalb 535, CORN); assay: Pre-emerge test, crop safety; conditions: for phytotoxicity rating CORN: pre-emerge, 14 days after application, rating scale 0-100; for Pre-emerge Herbicidal Activity CORN: crop damage rating 0-100, 14 days after application
In short: (§1)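 Visual ratings on a 0-100 scale (0 no damage, 100 all plants dead) were taken at 14 days after treatment. Rates of 15-1000 g ai/ha in acetone, 187 l/ha, were sprayed onto soil one day after planting (pre-emerge) or onto 2-3 leaf plants with 0.25% v/v surfactant (post-emerge).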

[2] = system: upland rice (Oryza sp., var. Tebonnet, RICE); assay: Pre-emerge test, crop safety; conditions: for phytotoxicity rating RICE: pre-emerge, 14 days after application, rating scale 0-100; for Pre-emerge Herbicidal Activity RICE: crop damage rating 0-100, 14 days after application
In short: as §1

[3] = system: velvetleaf (Abutilon theophrasti, ABUTH); assay: Post-emerge test, greenhouse herbicide activity screening; conditions: post-emerge, 14 days after application, rating scale 0-100
In short: (§2)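 Applied at 15–1000 g ai/ha from acetone in 187 l/ha spray volume. Post-emergence applications included 0.25% v/v non-ionic surfactant and reached plants sown 8–21 days before. Pre-emergence applications were incorporated by surface watering. Efficacy or crop damage was rated on a 0–100 scale after 14 days.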

[4] = system: barnyardgrass (Echinochloa crus-galli, ECHCG); assay: as above; conditions: post-emerge, 14 days after application, rating scale 0-100
In short: as §2

[5] = system: redroot pigweed (Amaranthus retroflexus, AMARE); assay: as above; conditions: post-emerge, 14 days after application
In short: as §2

[6] = system: ivyleaf morningglory (Ipomoea hederacea, IPOHE); assay: as above; conditions: post-emerge, 14 days after application, rating scale 0-100
In short: as §2

[7] = system: sicklepod (Cassia obtusifolia, CASOB); assay: as above; conditions: post-emerge, 14 days after application, rating scale 0-100
In short: as §2

[8] = system: green foxtail (Setaria viridis, SETVI); assay: as above; conditions: post-emerge, 14 days after application, rating scale 0-100
In short: as §2

[9] = system: large crabgrass (Digitaria sanguinalis, DIGSA); assay: as above; conditions: post-emerge, 14 days after application, rating scale 0-100
In short: as §2

[10] = system: lambsquarters (Chenopodium album, CHEAL); assay: as above; conditions: post-emerge, 14 days after application, rating scale 0-100
In short: as §2

[11] = system: field corn (Zea mays L., var. Dekalb 535, CORN); assay: Post-emerge test, crop safety; conditions: post-emerge, 14 days after application, rating scale 0-100
In short: (§3)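 Rating: 0–100 visual injury, 14 DAA. Application: acetone, 187 l/ha, 15–1000 g ai/ha, flat-fan track sprayer with nozzle 40–45 cm above soil or canopy. Post-emerge runs used 0.25% v/v surfactant on 2–3 leaf plants.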

[12] = system: upland rice (Oryza sp., var. Tebonnet, RICE); assay: Post-emerge test, crop safety; conditions: post-emerge, 14 days after application, rating scale 0-100
In short: as §3

[13] = system: redroot pigweed (Amaranthus retroflexus, AMARE); assay: Pre-emerge test, greenhouse herbicide activity screening; conditions: for phytotoxicity rating AMARE: pre-emerge, 14 days after application, rating scale 0-100; for Pre-emerge Herbicidal Activity AMARE: phytotoxicity rating 0-100, 14 days after application
In short: as §1

[14] = system: velvetleaf (Abutilon theophrasti, ABUTH); assay: as above; conditions: for phytotoxicity rating ABUTH: pre-emerge, 14 days after application, rating scale 0-100; for Pre-emerge Herbicidal Activity ABUTH: phytotoxicity rating 0-100, 14 days after application
In short: (§4)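 Compounds in acetone were track-sprayed at 15–1000 g ai/ha: pre-emergence onto soil sown the previous day, then top-watered to incorporate and later bottom-watered; post-emergence onto 2–3 leaf plants with 0.25% v/v surfactant, bottom-watered only. Ratings on a 0–100 phytotoxicity scale were taken at day 14.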

[15] = system: barnyardgrass (Echinochloa crus-galli, ECHCG); assay: as above; conditions: for phytotoxicity rating ECHCG: pre-emerge, 14 days after application, rating scale 0-100; for Pre-emerge Herbicidal Activity ECHCG: phytotoxicity rating 0-100, 14 days after application
In short: as §4

[16] = system: ivyleaf morningglory (Ipomoea hederacea, IPOHE); assay: as above; conditions: for phytotoxicity rating IPOHE: pre-emerge, 14 days after application, rating scale 0-100; for Pre-emerge Herbicidal Activity IPOHE: phytotoxicity rating 0-100, 14 days after application
In short: as §4

[17] = system: johnsongrass (Sorghum halepense, SORHA); assay: as above; conditions: for phytotoxicity rating SORHA: pre-emerge, 14 days after application, rating scale 0-100; for Pre-emerge Herbicidal Activity SORHA: phytotoxicity rating 0-100, 14 days after application
In short: as §4

[18] = system: sicklepod (Cassia obtusifolia, CASOB); assay: as above; conditions: for phytotoxicity rating CASOB: pre-emerge, 14 days after application, rating scale 0-100; for Pre-emerge Herbicidal Activity CASOB: phytotoxicity rating 0-100, 14 days after application
In short: as §4

[19] = system: green foxtail (Setaria viridis, SETVI); assay: as above; conditions: for phytotoxicity rating SETVI: pre-emerge, 14 days after application, rating scale 0-100; for Pre-emerge Herbicidal Activity SETVI: phytotoxicity rating 0-100, 14 days after application
In short: as §4

[20] = system: large crabgrass (Digitaria sanguinalis, DIGSA); assay: as above; conditions: for phytotoxicity rating DIGSA: pre-emerge, 14 days after application, rating scale 0-100; for Pre-emerge Herbicidal Activity DIGSA: phytotoxicity rating 0-100, 14 days after application
In short: as §4

[21] = system: lambsquarters (Chenopodium album, CHEAL); assay: as above; conditions: for phytotoxicity rating CHEAL: pre-emerge, 14 days after application, rating scale 0-100; for Pre-emerge Herbicidal Activity CHEAL: phytotoxicity rating 0-100, 14 days after application
In short: as §4

[22] = 63 g ai/ha, rating scale 0-100 (0 no damage, 100 complete death)
[23] = 250 g ai/ha, rating scale 0-100

COc1c(Cl)cc(F)c(-n2c(=O)cc(C(F)(F)F)n(C)c2=O)c1NNC(=O)Oc1ccccc1 [15-7]
phytotoxicity rating CORN ([1]; 63 g ai/ha): 85 | phytotoxicity rating CORN ([1]; 250 g ai/ha): 100 | phytotoxicity rating RICE ([2]; 63 g ai/ha): 90 | phytotoxicity rating RICE ([2]; 250 g ai/ha): 100 | Post-emerge Herbicidal Activity ABUTH (phytotoxicity rating) ([3]; 63 g ai/ha): 100 | Post-emerge Herbicidal Activity ABUTH (phytotoxicity rating) ([3]; 250 g ai/ha): 100 | Post-emerge Herbicidal Activity ECHCG (phytotoxicity rating) ([4]; 63 g ai/ha): 40 | Post-emerge Herbicidal Activity ECHCG (phytotoxicity rating) ([4]; 250 g ai/ha): 95 | Post-emerge Herbicidal Activity AMARE (phytotoxicity rating) [5, 22]: 100 | Post-emerge Herbicidal Activity AMARE (phytotoxicity rating) [5, 23]: 100 | Post-emerge Herbicidal Activity IPOHE (phytotoxicity rating) ([6]; 63 g ai/ha): 100 | Post-emerge Herbicidal Activity IPOHE (phytotoxicity rating) ([6]; 250 g ai/ha): 100 | Post-emerge Herbicidal Activity CASOB (phytotoxicity rating) ([7]; 63 g ai/ha): 60 | Post-emerge Herbicidal Activity CASOB (phytotoxicity rating) ([7]; 250 g ai/ha): 100 | Post-emerge Herbicidal Activity SETVI (phytotoxicity rating) ([8]; 63 g ai/ha): 30 | Post-emerge Herbicidal Activity SETVI (phytotoxicity rating) ([8]; 250 g ai/ha): 90 | Post-emerge Herbicidal Activity DIGSA (phytotoxicity rating) ([9]; 63 g ai/ha): 20 | Post-emerge Herbicidal Activity DIGSA (phytotoxicity rating) ([9]; 250 g ai/ha): 75 | Post-emerge Herbicidal Activity CHEAL (phytotoxicity rating) ([10]; 63 g ai/ha): 100 | Post-emerge Herbicidal Activity CHEAL (phytotoxicity rating) ([10]; 250 g ai/ha): 100 | Post-emerge Herbicidal Activity CORN (crop damage rating) ([11]; 63 g ai/ha): 60 | Post-emerge Herbicidal Activity CORN (crop damage rating) ([11]; 250 g ai/ha): 80 | Post-emerge Herbicidal Activity RICE (crop damage rating) ([12]; 63 g ai/ha): 50 | Post-emerge Herbicidal Activity RICE (crop damage rating) ([12]; 250 g ai/ha): 90 | phytotoxicity rating AMARE ([13]; 63 g ai/ha): 100 | phytotoxicity rating AMARE ([13]; 250 g ai/ha): 100 | phytotoxicity rating ABUTH ([14]; 63 g ai/ha): 100 | phytotoxicity rating ABUTH ([14]; 250 g ai/ha): 100 | phytotoxicity rating ECHCG ([15]; 63 g ai/ha): 80 | phytotoxicity rating ECHCG ([15]; 250 g ai/ha): 100 | phytotoxicity rating IPOHE ([16]; 63 g ai/ha): 95 | phytotoxicity rating IPOHE ([16]; 250 g ai/ha): 100 | phytotoxicity rating SORHA ([17]; 63 g ai/ha): 95 | phytotoxicity rating SORHA ([17]; 250 g ai/ha): 100 | phytotoxicity rating CASOB ([18]; 63 g ai/ha): 100 | phytotoxicity rating CASOB ([18]; 250 g ai/ha): 100 | phytotoxicity rating SETVI ([19]; 63 g ai/ha): 100 | phytotoxicity rating SETVI ([19]; 250 g ai/ha): 100 | phytotoxicity rating DIGSA ([20]; 63 g ai/ha): 90 | phytotoxicity rating DIGSA ([20]; 250 g ai/ha): 100 | phytotoxicity rating CHEAL ([21]; 63 g ai/ha): 100 | phytotoxicity rating CHEAL ([21]; 250 g ai/ha): 100

COc1c(Cl)cc(F)c(-n2c(=O)cc(C(F)(F)F)n(C)c2=O)c1NC(=O)OC(c1ccccc1)C1CC1 (stereo not drawn) [4-46]
Pre-emerge Herbicidal Activity CORN ([1]; 63 g ai/ha): 0 | Pre-emerge Herbicidal Activity CORN ([1]; 250 g ai/ha): 5 | Pre-emerge Herbicidal Activity RICE ([2]; 63 g ai/ha): 10 | Pre-emerge Herbicidal Activity RICE ([2]; 250 g ai/ha): 50 | phytotoxicity rating ABUTH ([3]; 63 g ai/ha): 95 | phytotoxicity rating ABUTH ([3]; 250 g ai/ha): 90 | phytotoxicity rating ECHCG ([4]; 63 g ai/ha): 20 | phytotoxicity rating ECHCG ([4]; 250 g ai/ha): 30 | phytotoxicity rating AMARE [5, 22]: 100 | phytotoxicity rating AMARE [5, 23]: 100 | phytotoxicity rating IPOHE ([6]; 63 g ai/ha): 100 | phytotoxicity rating IPOHE ([6]; 250 g ai/ha): 90 | phytotoxicity rating CASOB ([7]; 63 g ai/ha): 80 | phytotoxicity rating CASOB ([7]; 250 g ai/ha): 95 | phytotoxicity rating SETVI ([8]; 63 g ai/ha): 10 | phytotoxicity rating SETVI ([8]; 250 g ai/ha): 10 | phytotoxicity rating DIGSA ([9]; 63 g ai/ha): 0 | phytotoxicity rating DIGSA ([9]; 250 g ai/ha): 20 | phytotoxicity rating CHEAL ([10]; 63 g ai/ha): 90 | phytotoxicity rating CHEAL ([10]; 250 g ai/ha): 100 | phytotoxicity rating CORN (crop damage) ([11]; 63 g ai/ha): 10 | phytotoxicity rating CORN (crop damage) ([11]; 250 g ai/ha): 80 | phytotoxicity rating RICE (crop damage) ([12]; 63 g ai/ha): 10 | phytotoxicity rating RICE (crop damage) ([12]; 250 g ai/ha): 70 | Pre-emerge Herbicidal Activity AMARE ([13]; 63 g ai/ha): 80 | Pre-emerge Herbicidal Activity AMARE ([13]; 250 g ai/ha): 100 | Pre-emerge Herbicidal Activity ABUTH ([14]; 63 g ai/ha): 50 | Pre-emerge Herbicidal Activity ABUTH ([14]; 250 g ai/ha): 100 | Pre-emerge Herbicidal Activity ECHCG ([15]; 63 g ai/ha): 20 | Pre-emerge Herbicidal Activity ECHCG ([15]; 250 g ai/ha): 60 | Pre-emerge Herbicidal Activity IPOHE ([16]; 63 g ai/ha): 10 | Pre-emerge Herbicidal Activity IPOHE ([16]; 250 g ai/ha): 85 | Pre-emerge Herbicidal Activity SORHA ([17]; 63 g ai/ha): 20 | Pre-emerge Herbicidal Activity SORHA ([17]; 250 g ai/ha): 60 | Pre-emerge Herbicidal Activity CASOB ([18]; 63 g ai/ha): 30 | Pre-emerge Herbicidal Activity CASOB ([18]; 250 g ai/ha): 40 | Pre-emerge Herbicidal Activity SETVI ([19]; 63 g ai/ha): 40 | Pre-emerge Herbicidal Activity SETVI ([19]; 250 g ai/ha): 100 | Pre-emerge Herbicidal Activity DIGSA ([20]; 63 g ai/ha): 70 | Pre-emerge Herbicidal Activity DIGSA ([20]; 250 g ai/ha): 95 | Pre-emerge Herbicidal Activity CHEAL ([21]; 63 g ai/ha): 100 | Pre-emerge Herbicidal Activity CHEAL ([21]; 250 g ai/ha): 100
